The text below walks through data of patent publication US20250228762A1, “COSMETIC COMPOSITION COMPRISING LUTEIN AND A POLYSACCHARIDE” (ALGAKTIV, S.L., priority 2022, published 2025).

Common to all, as to assay type: cell-based
Assay [1] deals with RAR gamma. Nature of the assay: RAR gamma agonist assay (SelectScreen GeneBLAzer, UAS-bla HEK 293T). Here is the method: (§1) An agonist assay for RAR was performed by SelectScreen® Cell-Based Nuclear Receptor Profiling Service of Life Technologies. In this assay, an engineered cell line (UAS-bla HEK 293T) expressing RARalpha, RARbeta or RAR gamma is used to test the action of lutein. GeneBLAzer® technology, based on mammalian-optimized Beta-lactamase reporter gene (bla) combined with a FRET-enabled substrate, provides the assay with a sensitive detection method. […] The plate is incubated for 16-24 hours at 37° C./5% CO2 in a humidified incubator. 8 μL of 1 μM Substrate Loading Solution is added to each well and the plate is incubated for 2 hours at room temperature. The plate is read on a fluorescence plate reader.

The test system of assay [2] is RARalpha. Briefly: RAR alpha agonist assay (SelectScreen GeneBLAzer, UAS-bla HEK 293T). Here is the method:
as §1

The subject of assay [3] is RARbeta. Nature of the assay: RAR beta agonist assay (SelectScreen GeneBLAzer, UAS-bla HEK 293T). Here is the method:
as §1

Where [4] appears, read: at any concentration below 3.2 μM.

pEC50: −log10 of the molar value.

One may read the pEC50 as the EC50 on a negative log10 scale, so that one unit is a factor of ten.

Turning to `CC1=C(/C=C/C(C)=C/C=C/C(C)=C/C(=O)O)C(C)(C)CCC1` [ATRA, reference compound], the pEC50 was 9.88 in assay [1] (RAR-gamma-UAS-bla HEK 293T, FIG. 4, read-out: EC50 (control agonist, RAR gamma)); […] in assay [2] (RAR-alpha-UAS-bla HEK 293T, FIG. 2, read-out: EC50 (control agonist, RAR alpha)); 9.34 in assay [3] (RAR-beta-UAS-bla HEK 293T, FIG. 3, read-out: EC50 (control agonist, RAR beta)).
As for `CC1=C[C@H](O)CC(C)(C)[C@H]1/C=C/C(C)=C/C=C/C(C)=C/C=C/C=C(C)/C=C/C=C(C)/C=C/C1=C(C)C[C@@H](O)CC1(C)C` [Lutein, (1R,4R)-4-{(1E,3E,5E,7E,9E,11E,13E,15E,17E)-18-[(4R)-4-Hydroxy-2,6,6-trimethylcyclohex-1-en-1-yl]-3,7,12,16-tetramethyloctadeca-1,3,5,7,9,11,13,15,17-nonaen-1-yl}-3,5,5-trimethylcyclohex-2-en-1-ol], the “agonist effect on RAR gamma” value in assay [1] (setting [4]) is on record as “No agonist effect”. For the same compound, the “agonist effect on RAR alpha” value in assay [2] (setting [4]) was “No agonist effect”. Also, the “concentrations at which a specific RAR-beta partial agonist effect could be measured” value in assay [3] (RAR-beta-UAS-bla HEK 293T) is given as “above 100 nm”. In addition, the RAR-beta activation in assay [3] (at 3.16 μM) is recorded as ~40%.
